In the NIST ThermoML archive (doi:10.1021/je030167i):

Assay: xn = mol fraction of the nth substance listed
Details: 101.3 kPa, Liquid

CC1CCCO1 (stereo not given) [2-methyltetrahydrofuran] + CC(C)CO
Details | kinematic viscosity, 298.15 K [m2/s] | kinematic viscosity, 313.15 K [m2/s] | mass density, 298.15 K [kg/m3] | mass density, 313.15 K [kg/m3]
x2 = 0 | 5.59e-07 | 4.92e-07 | 849.28 | 834.01
x2 = 0.0397 | 5.85e-07 | 5.06e-07 | 847.52 | 832.15
x2 = 0.0951 | 6.17e-07 | 5.31e-07 | 844.97 | 829.82
x2 = 0.1999 | 6.87e-07 | 5.88e-07 | 840.08 | 825.25
x2 = 0.3008 | 7.77e-07 | 6.54e-07 | 835.46 | 820.88
x2 = 0.3982 | 8.96e-07 | 7.47e-07 | 830.71 | 816.54
x2 = 0.4988 | 1.04e-06 | 8.47e-07 | 825.72 | 811.84
x2 = 0.5992 | 1.26e-06 | 9.96e-07 | 820.51 | 807.01
x2 = 0.7013 | 1.58e-06 | 1.22e-06 | 815.04 | 801.97
x2 = 0.7995 | 2.06e-06 | 1.51e-06 | 809.54 | 796.99
x2 = 0.9048 | 2.93e-06 | 2.02e-06 | 803.45 | 791.39
x2 = 0.9557 | 3.55e-06 | 2.36e-06 | 800.39 | 788.49

CC1CCCO1 (stereo not given) [2-methyltetrahydrofuran] + CCC(C)Cl
x2 = 0
Details | kinematic viscosity [m2/s] | mass density [kg/m3]
298.15 K | 5.59e-07 | 849.28
313.15 K | 4.92e-07 | 834.01

CC1CCCO1 (stereo not given) [2-methyltetrahydrofuran] + CCC(C)O
Details | kinematic viscosity, 298.15 K [m2/s] | kinematic viscosity, 313.15 K [m2/s] | mass density, 298.15 K [kg/m3] | mass density, 313.15 K [kg/m3]
x2 = 0 | 5.59e-07 | 4.92e-07 | 849.28 | 834.01
x2 = 0.0437 | 5.66e-07 | 4.91e-07 | 847.1 | 831.74
x2 = 0.0915 | 6.07e-07 | 5.06e-07 | 844.81 | 829.48
x2 = 0.1968 | 6.45e-07 | 5.54e-07 | 839.74 | 824.64
x2 = 0.3024 | 7.16e-07 | 6.04e-07 | 834.82 | 820.02
x2 = 0.3993 | 8.06e-07 | 6.7e-07 | 830.17 | 815.81
x2 = 0.5051 | 9.5e-07 | 7.71e-07 | 825.31 | 811.2
x2 = 0.6018 | 1.11e-06 | 8.78e-07 | 820.77 | 806.88
x2 = 0.6999 | 1.39e-06 | 1.05e-06 | 816.27 | 802.66
x2 = 0.8077 | 1.86e-06 | 1.34e-06 | 811.31 | 797.97
x2 = 0.8708 | 2.26e-06 | 1.57e-06 | 808.35 | 795.28
x2 = 0.9361 | 2.9e-06 | 1.86e-06 | 805.28 | 792.38
